Data as given in the CheMixHub viscosity set.

Assay: xn = mol fraction of the nth substance listed

CC(C)[O-].CC(C)[O-].CC(C)[O-].CC(C)[O-].[Ti+4] + CC(C)O
viscosity [mPa·s], 101.3 kPa
Settings	x1 = 0.0502	x1 = 0.1236	x1 = 0.2408	x1 = 0.4582	x1 = 0.6555
293.15 K	2.274	2.136	2.072	2.134	2.287
303.15 K	1.659	1.526	1.458	1.535	1.498
313.15 K	1.274	1.185	1.133	1.167	1.123
323.15 K	0.9981	0.9549	0.9172	0.9361	0.9108

ClC(Cl)(Cl)Cl + ClC(Cl)Cl
Settings	viscosity [mPa·s]
293.15 K, 101.33 kPa, x1 = 0.2087	0.6645
293.15 K, 101.33 kPa, x1 = 0.517	0.7319
293.15 K, 101.33 kPa, x1 = 0.9083	0.9238
298.15 K, 101 kPa, x1 = 0.1566	0.569
298.15 K, 101 kPa, x1 = 0.5099	0.659
298.15 K, 101 kPa, x1 = 0.7699	0.761
298.15 K, 101 kPa, x2 = 0.2298	0.761
298.15 K, 101 kPa, x2 = 0.51	0.659
298.15 K, 101 kPa, x2 = 0.8437	0.569
298.15 K, 101.33 kPa, x1 = 0.2087	0.6296
298.15 K, 101.33 kPa, x1 = 0.517	0.6888
298.15 K, 101.33 kPa, x1 = 0.9083	0.8561
298.16 K, 101 kPa, x2 = 0.151	0.816
298.16 K, 101 kPa, x2 = 0.328	0.732
298.16 K, 101 kPa, x2 = 0.61	0.633
298.16 K, 101 kPa, x2 = 0.803	0.583
303.15 K, 101.3 kPa, x1 = 0.502	0.6248
303.15 K, 101.33 kPa, x1 = 0.2087	0.5964
303.15 K, 101.33 kPa, x1 = 0.517	0.6543
303.15 K, 101.33 kPa, x1 = 0.9083	0.8041
308.15 K, 101.33 kPa, x1 = 0.2087	0.5644
308.15 K, 101.33 kPa, x1 = 0.517	0.6241
308.15 K, 101.33 kPa, x1 = 0.9083	0.7523
313.15 K, 101.33 kPa, x1 = 0.2087	0.5501
313.15 K, 101.33 kPa, x1 = 0.517	0.5928
313.15 K, 101.33 kPa, x1 = 0.9083	0.7143
318.15 K, 101.33 kPa, x1 = 0.2087	0.523
318.15 K, 101.33 kPa, x1 = 0.517	0.5657
318.15 K, 101.33 kPa, x1 = 0.9083	0.6686
323.15 K, 101.33 kPa, x1 = 0.2087	0.5032
323.15 K, 101.33 kPa, x1 = 0.517	0.5444
323.15 K, 101.33 kPa, x1 = 0.9083	0.6335

CCCCCCCCCCCCCC(=O)O + CC(C)[C@@H]1CC[C@@H](C)C[C@H]1O
100 kPa, x1 = 0.2
Settings	viscosity [mPa·s]
298.15 K	33.99
303.15 K	24.78
308.15 K	18.54
313.15 K	14.21
318.15 K	11.11
323.15 K	8.85

ClC(Cl)(Cl)Cl + CCOC(C)=O
101.3 kPa
Settings	viscosity [mPa·s]
298 K, x1 = 0.1581	0.517
298 K, x1 = 0.3048	0.57
298 K, x1 = 0.501	0.644
298 K, x1 = 0.6498	0.713
298 K, x1 = 0.8438	0.808
303.15 K, x2 = 0.1014	0.758
303.15 K, x2 = 0.1972	0.6991
303.15 K, x2 = 0.2976	0.6483
303.15 K, x2 = 0.394	0.6016
303.15 K, x2 = 0.4966	0.5603
303.15 K, x2 = 0.5986	0.5236
303.15 K, x2 = 0.6989	0.4883
303.15 K, x2 = 0.802	0.4572
303.15 K, x2 = 0.898	0.4289
318 K, x1 = 0.1518	0.4229
318 K, x1 = 0.3052	0.4655
318 K, x1 = 0.5035	0.5279
318 K, x1 = 0.6517	0.5797
318 K, x1 = 0.854	0.6674

CCCCCCCCCCCCc1ccccc1S(=O)(=O)[O-].[Na+] + O
viscosity [mPa·s], 101 kPa
Settings	x1 = 5e-06	x1 = 1e-05	x1 = 2e-05	x1 = 2.2e-05	x1 = 2.7e-05	x1 = 3.2e-05	x1 = 3.8e-05	x1 = 4.3e-05	x1 = 4.9e-05	x1 = 5.4e-05
293.15 K	0.9811	0.9821	0.9837	0.9859	0.9881	0.9903	0.9919	0.9944	0.9974	1.001
298.15 K	0.8497	0.8508	0.8522	0.8544	0.8558	0.857	0.8582	0.86	0.8614	0.864
303.15 K	0.7683	0.7687	0.77	0.7718	0.7744	0.7763	0.7812	0.7864	0.796	0.7988
308.15 K	0.6924	0.6932	0.6943	0.6958	0.6979	0.7013	0.7051	0.7074	0.7106	0.7123
313.15 K	0.6075	0.609	0.6102	0.6121	0.6138	0.6167	0.6203	0.623	0.6242	0.6262

ClC(Cl)(Cl)Cl + COC(C)=O
303.15 K, 101.3 kPa
Settings	viscosity [mPa·s]
x2 = 0.1004	0.763
x2 = 0.1926	0.7035
x2 = 0.2864	0.6472
x2 = 0.4018	0.587
x2 = 0.5025	0.5405
x2 = 0.6004	0.5006
x2 = 0.7001	0.4608
x2 = 0.8964	0.3807

COc1cccc(C)c1 + CCCCCOC(C)=O
Settings	viscosity [mPa·s]
298.15 K, 101 kPa, x1 = 0.5	0.8784
